Assay results published in patent publication US20090069417A1, “CAROTENOID OXIDATION PRODUCTS AS CHEMOPREVENTIVE AND CHEMOTHERAPEUTIC AGENTS” (priority 2005, published 2009).

Key:
[1] = system: WB-F344 rat liver epithelial cells; conditions: cited from earlier work
[2] = system: antioxidant response element (ARE) in MCF-7 and T47D cells; experiment: ARE induction in human breast cancer cell lines (FIG. 2A); format: cell-based; conditions: compared with lycopene
Method: Cell transfection and reporter gene assays were generally carried out as follows. Some variations may be adopted for different cell lines: Cells were transfected using TFx-50 reagent (Promega, Madison, Wis.) with ca. 0.07 μg of DNA containing 0.05 μg of reporter plasmid and 0.02 μg of Renilla luciferase expression vector (P-RL-null vector, Promega) as an internal standard. For this purpose, cells were seeded in 24-well plates (100,000 cells per well). After 1 day, cells were rinsed twice with the appropriate culture medium without serum, followed by the addition of 0.2 mL of medium containing DNA and TFx-50 reagent at a charge ratio of 1:3. The cells were then incubated for 30 minutes at 37° C. in 95% air/5% CO2. Four hundred microliters of medium containing 3% charcoal-stripped delipidated FCS were added and incubation continued for 8 hours. This was then replaced by medium supplemented with 3% delipidated FCS and the test compounds and cells were incubated for another 16 hours. Cell extracts were prepared for luciferase reporter assay (Dual Luciferase Reporter Assay System, Promega) according to the manufacturer's instructions. […]

[3] = system: antioxidant response element (ARE); experiment: ARE reporter gene (luciferase) assay, transient transfection; format: cell-based, human; conditions: FIG. 1, mean of 3-6 experiments, expressed as ratio to stimulation obtained with tBHQ, compared in words
From the text: ARE reporter constructs were provided by Dr. J. J. Gipp (University of Wisconsin Medical School, Madison, Wis.; Ref 18). NQO1hARE-tk-luc and GCShARE4-tk-luc contain sequences of the active response elements from the promoters of human NQO1 and GCS heavy subunit, respectively. GCShARE4m-tk-luc, a non-active mutant form of the latter construct, contains a single base mutation in the relevant sequence.
Cell transfection and reporter gene assays were generally carried out as follows. Some variations may be adopted for different cell lines: Cells were transfected using TFx-50 reagent (Promega, Madison, Wis.) with ca. 0.07 μg of DNA containing 0.05 μg of reporter plasmid and 0.02 μg of Renilla luciferase expression vector (P-RL-null vector, Promega) as an internal standard. For this purpose, cells were seeded in 24-well plates (100,000 cells per well). After 1 day, cells were rinsed twice with the appropriate culture medium without serum, followed by the addition of 0.2 mL of medium containing DNA and TFx-50 reagent at a charge ratio of 1:3. The cells were then incubated for 30 minutes at 37° C. in 95% air/5% CO2. Four hundred microliters of medium containing 3% charcoal-stripped delipidated FCS were added and incubation continued for 8 hours. This was then replaced by medium supplemented with 3% delipidated FCS and the test compounds and cells were incubated for another 16 hours. Cell extracts were prepared for luciferase reporter assay (Dual Luciferase Reporter Assay System, Promega) according to the manufacturer's instructions.
The effects of lycopene and several lycopene derivatives on antioxidant response element (ARE) induction were tested in all of the cancer cell lines mentioned above. The assay employed measures the transcriptional activity of the antioxidant response element which is activated by the Nrf2 transcription factor, and its activation by carotenoids and their derivatives. Parts of a promoter of the genes of interest were fused to a luciferase reporter gene as described in Materials and Methods. The constructs were transfected into the cells. Cells were incubated with carotenoids or derivatives and activation of transcription was measured.
The results are depicted in FIG. 1 as the mean of 3-6 experiments. The standard errors of the mean (SEs) (not shown) were not higher than 10% of the mean. In order to decrease the variation between experiments, the results are expressed as the ratio of stimulation obtained with each specific derivative to that obtained with tBHQ (a well known positive control in this system).

MCF-7 and T47D cells = experiment: Cell proliferation, [3H]thymidine incorporation, mammary cancer cells (FIG. 2B); format: cell-based, human; conditions: compared with lycopene
Method: MCF-7, human mammary cancer cells were purchased from American Type Culture Collection (Rockwell, Md.). MCF-7 cells were grown in DMEM containing penicillin (100 units/mL), streptomycin (0.1 mg/mL), nystatin (12.5 Ag/mL), 0.6 μg/mL insulin, and 10% FCS. T47D, human mammary cancer cell line, were provided by Dr. Yafa Keidar (Tel-Aviv University, Israel) and were grown in DMEM medium. LNCaP human prostate cancer cells were purchased from American Type Culture Collection (Rockwell, Md.) and were grown on RPMI medium. The medium contained penicillin (100 U/ml), streptomycin (0.1 mg/ml) nystatin (12.5 μg/ml), and 10% fetal calf serum (FCS), and 6 μg/ml insulin. Prior to each experiment, the cells were depleted of steroid hormones and maintained for 3-5 days in phenol red-free DMEM supplemented with 10% DCC FCS.
MCF-7, LNCaP and T47D cells were seeded in 96-well plates. After one day, the medium was replaced with one containing the various materials. In each day of the experiment one plate was used for the thymidine incorporation assay. Thymidine incorporation was determined as follows: 2.5 μCi/well of [^3H]thymidine (specific radioactivity 5 mCi/mmol) containing cold thymidine (100 μM) was added and the plate were incubated (37° C.) for 1 hr (MCF-7 cells) or for 3 hr (LNCaP, T47D cells). […] Radioactivity was determined by a radioactive image analyzer (BAS 1000, Fuji, Japan). […]

[4] = system: HL-60 human promyelocytic leukemia cells; conditions: HL-60 cells; cited from earlier work
[5] = system: mammary, endometrial, lung and leukemic cancer cell growth; conditions: lung and leukemic cancer cells, dose-dependent, read-out: IC50, inhibition of cancer cell growth; cited from earlier work
[6] = system: reporter genes fused with ARE sequences; conditions: transiently transfected cancer cells; cited from earlier work

C\C(C=O)=C/C=C/C=C(C)/C=C/C=C(C)/C=C/C=O [2,7,11-trimethyl-tetradecahexaene-1,14-dial]
stimulation of gap junctional communication (GJC) [1]: stimulates gap junctional communication

C\C(C=O)=C/C=C/C(C)=C/C=C/C=C(C)/C=C/C=C(\C)C=O [8,8′, diapo-8,8′-lycopendial]
ARE induction [2]: less active
stimulation of transcription of ARE reporter genes [3]: much less active
inhibition of cell proliferation (MCF-7 and T47D cells): less active

C\C(C=O)=C/C=C/C=C(C)/C=C/C=C(\C)C=O [8′,12, diapo-8′,12-lycopendial]
stimulation of transcription of ARE reporter genes [3]: more active than the parent molecule lycopene
stimulation of transcription of ARE reporter genes ([3]; listed as 8′12): most active

CC(/C=C/C=O)=C\C=C\C=C(C)\C=C\C=O [10,10′, diapo-10,10′-lycopendial]
ARE induction [2]: more active than lycopene
stimulation of transcription of ARE reporter genes [3]: more active than the parent molecule lycopene
stimulation of transcription of ARE reporter genes ([3]; listed as 10′10): most active
inhibition of cell proliferation (MCF-7 and T47D cells): more active than lycopene

C\C(C=O)=C/C=C/C=C(\C)C=O [12,12′, diapo-12,12′-lycopendial]
stimulation of transcription of ARE reporter genes [3]: much less active

CC(=O)/C=C/C=C(C)/C=C/C=O [(E,E,E)-4-methyl-8-oxo-2,4,6-nonatrienal]
induction of apoptosis [4]: induces apoptosis

CC(C)=CCC/C(C)=C/C=C/C(C)=C/C=C/C(C)=C/C=C/C=C(C)/C=C/C=C(C)/C=C/C=C(\C)CCC=C(C)C [lycopene, Lycopene]
IC50 [5]: ~2000 nM
transactivation of ARE reporter genes [6]: capable of transactivating the expression of reporter genes fused with ARE sequences

diapo-8′,15-lycopendial
stimulation of transcription of ARE reporter genes [3]: more active than the parent molecule lycopene
stimulation of transcription of ARE reporter genes ([3]; listed as 8′15): also active
